The conditions of series [1]: particle size distribution after micronisation. An excerpt: (§1) The D10, D50, and D90 values are useful for indicating a particle size distribution. D90 refers to 90 volume percent of the particles having a size smaller than the specified value. Likewise D10 refers to 10 volume percent of the particles having a size smaller than the specified value. D50 refers to 50 volume percent of the particles having a size smaller than the specified value. Methods for determining D10, D50 and D90 include laser diffraction, such as using Malvern equipment (from Malvern Instruments Limited, Malvern, Worcestershire, United Kingdom).

For series [2] the following is noted: for D10 / D50 / D90: storage at 25±2° C., relative humidity 65±5%; for change of particle size distribution / agglomerate formation on storage: ambient storage, up to 18 days, exposure to atmosphere.
Text: as §1
Rasgiline mesylate (6 g) prepared according to Example 28 is divided into three parts for storage under ambient conditions (temperature=25±2° C.; relative humidity=65±5%): unpackaged (P-I); in closed packages with a nitrogen atmosphere (P-II); and in closed packages with an air atmosphere (P-III). The samples are analyzed for particle size distribution on the 5th and 18th days.

SMILES strings stand for the structures. Counter-ions that a name gives are not always drawn. Like-named read-outs stand apart in the source and are kept apart here.

As for `C#CCN[C@@H]1CCc2ccccc21` [Example 28, Rasagiline mesylate], in series [1], the D10 stood at 0.663 μm, the D50 was 1.592 μm, the D90 is reported as 3.219 μm and the “D[4,3]” value stood at 1.792 μm.
In series [2] (5th day), `C#CCN[C@@H]1CCc2ccccc21` [P-III, Rasgiline mesylate] yielded a D10 of 1.182 μm, a D50 of 3.566 μm and a D90 of 120.731 μm. Besides, in series [2] (18th day), the D10 worked out at 1.365 μm, the D50 came to 4.171 μm and the D90 amounted to 144.617 μm.
Turning to `C#CCN[C@@H]1CCc2ccccc21` [Example 32, Rasagiline mesylate], in series [1], the D10 came out at 0.991 μm, the D50 worked out at 3.093 μm, the D90 is 6.540 μm and the “D[4,3]” value amounted to 3.496 μm.
For the molecule `C#CCN[C@@H]1CCc2ccccc21` [P-I, Rasgiline mesylate], in series [2] (5th day), the D10 amounted to 1.319 μm, the D50 turned out to be 4.216 μm and the D90 was found to be 151.379 μm.
Regarding `C#CCN[C@@H]1CCc2ccccc21` [P-II, Rasgiline mesylate], the “change of particle size distribution / agglomerate formation on storage” value in series [2] is recorded as “substantially unchanged”. In series [2] (5th day), this molecule gave a D10 of 0.892 μm, a D50 of 2.859 μm and a D90 of 5.524 μm. In series [2] (18th day), the D10 was 1.065 μm, the D50 came out at 3.227 μm and the D90 is listed as 6.282 μm.
On to `C#CCN[C@@H]1CCc2ccccc21` [rasagiline mesylate, (1R)—N-prop-2-ynyl-2,3-dihydro-1H-inden-1-amine methanesulfonate, reference compound], for which the “change of particle size distribution / agglomerate formation on storage” value in series [2] (methanesulfonate) is “susceptible to agglomerate formation”.
In series [1], `C#CCN[C@@H]1CCc2ccccc21` [Example 31, Rasagiline mesylate] displayed a D10 of 2.404 μm, a D50 of 146.957 μm and a D90 of 608.570 μm.
For `C#CCN[C@@H]1CCc2ccccc21` [Example 27, Rasagiline mesylate] the same measures were 0.779 μm, 2.285 μm and 5.517 μm.
In the case of `C#CCN[C@@H]1CCc2ccccc21` [Example 30, Rasagiline mesylate], in series [1], the D10 is 0.761 μm, the D50 worked out at 2.346 μm, the D90 turned out to be 4.981 μm and the “D[4,3]” value worked out at 2.650 μm.

These data come from US20110218360A1, “PREPARATION OF RASAGILINE AND SALTS THEREOF” (DR. REDDY'S LABORATORIES LTD., priority 2008, published 2011).
